{
  "source": "patent US20120015901A1",
  "about": "“METHODS AND PREPARATIONS FOR PROTECTING CRITICALLY ILL PATIENTS” (priority 2009, published 2012)",
  "key": {"C57BL/6 mice": {"test_system": "C57BL/6 mice", "assay": "Aging mice with spermidine in drinking water", "type": "in vivo", "from_the_text": "Male and female C57BL/6 mice were purchased from the Institut für Labortierkunde und-genetik, Himberg, Austria. All animals were used at an age between 12 and 16 weeks. All mice were kept and treated according to institutional guidelines and Austrian law and the experiments were approved by the responsible governmental commission. For each group, one male and two female mice were housed singly and fed ad libitum with regular food (pellets) and spermidine was supplemented to drinking water in concentrations of 0.3 and 3 mM for 200 days. Controls were given pure drinking water. Drinking water was replaced every 2-3 days and spermidine freshly added from 1 M aqueous stock (spermidine/HCl pH 7.4), which was kept at −20° C. for no longer than one month. […] At the end of the experiment, the animals were anesthetized by ether inhalation, and exsanguinated by heart puncture. Peripheral blood was allowed to clot for 20 min, and serum was obtained by centrifugation at 200 g for 10 min. The spleens and livers (shock frozen in liquid nitrogen and stored at −80° C. upon further use) were immediately excised. Serum was used for determination of free thiol groups by Ellmans' reaction (Ellman (1959) Arch Biochem Biophys 82, 70-77 and Riener et al. (2002) Anal Bioanal Chem 373, 266-276 (2002).) as described previously (Schraml et al. (2007) Exp Gerontol 42, 1072-1078).\nExtraction of polyamines from mice liver tissue was performed according to the freeze/thaw-method described by (Minocha et al. (1994)J Plant Growth Regul 13, 187-193) with slight modifications. […]\nPolyamines were determined according to the method described previously by Gianotti et al. (V. Gianotti et al. (2008) J Chromatogr A 1185, 296-300.). […]\nPolyamines were detected in MRM mode using following transitions: spermidine (m/z 146->72, CE 34 eV), putrescine (m/z 89->72, CE 28 eV), bis(hexamethylene)-triamine as internal standard (m/z 216->100, CE 36 eV). […]"}, "[1]": {"test_system": "chronologically aging wild type yeast cells", "assay": "Yeast cell death and oxidative stress markers (DHE, Annexin V/PI)", "type": "cell-based", "from_the_text": "For chronological aging experiments, cultures were inoculated from fresh overnight cultures to OD600 of 0.1 (˜1·10^6 cells/ml) with culture volume being 10% of flask volume and aliquots were taken out to perform survival plating at indicated time points (Herker, at al. (2004) J. Cell Biol. 164, 501-507. Survival at day 1 of wild type control cultures was set to 100% and other samples calculated accordingly. If not otherwise indicated, representative aging experiments are shown with at least three independent samples (as indicated) aged at the same time, which have been repeated at least twice with similar outcome. In case of experiments with Δspe1 (FIG. 24 A-E), all strains were inoculated to 5·10^4 cells/ml. Upon deletion of both IKI3 and SAS3 we observed slight aggregation of cells possibly due to a defect in late budding events. Therefore, for calculation of survival rates in experiments using Δiki3Δsas3, cell numbers of each sample were determined after two pulse of sonication on ice with Sonifier 250 from Benson (Duty Cycle: 35; Output Control: 2.5). Tests for apoptotic (TUNEL and Annexin V staining) and necrotic (PI staining) markers as well as markers for oxidative stress (DHE staining) were performed as described in Dod et al. (1982) Eur J Biochem 121, 401-405). For quantifications using flow cytometry (BD FACSAria), 30,000 cells were evaluated and analyzed with BD FACSDiva software. Spermidine (S4139, Sigma, Austria) and putrescine (P5780, Sigma, Austria; 1 mM final concentration) were added to stationary cultures at day 1 of the aging experiments (24 h after inoculation). 1 M aqueous stock solution of spermidine was stored in one use aliquots at −20° C. for no longer than 1 month. For adjustment of extracellular pH (pHex) to 6 (±0.5), the required amount of sodium hydroxide was added 30 h after inoculation. […]\nAs a further marker for necrosis, nuclear release of the yeast HMGB1 homolog (Nhp6Ap) was monitored by epifluorescence microscopy of ectopically expressed chimeric fusion protein Nhp6Ap-EGFP. […]"}, "[2]": {"conditions": "spermidine treatment during chronological aging"}},
  "data": [
    {"molecule": "NCCCCNCCCN", "note": "[spermidine]", "values": [
      {"measurement": "increase of serum level of free thiol groups", "setting": "C57BL/6 mice; 3 mM spermidine in drinking water for 200 days", "result": "~30", "unit": "%"},
      {"measurement": "food and body weight", "setting": "C57BL/6 mice; 0.3 and 3 mM in drinking water, 200 days (data not shown)", "result": "remained unaffected"},
      {"measurement": "intracellular spermidine levels in liver cells", "setting": "C57BL/6 mice; spermidine in drinking water, 200 days", "result": "significantly increased"},
      {"measurement": "loss of membrane integrity (PI positivity and Annexin V+PI+)", "setting": "[1]; after 18 days of aging, 50% without spermidine", "result": "less than 10%"},
      {"measurement": "externalization of phosphatidylserine (Annexin V+PI− cells), early apoptotic marker", "setting": "[1]; [2]", "result": "remained largely unaltered"},
      {"measurement": "markers of necrosis and oxidative stress (DHE positivity)", "setting": "[1]; [2]", "result": "drastically diminished"}
    ]}
  ]
}
